According to patent publication US20260092083A1, “VANCOMYCIN DERIVATIVES WITH SIDEROPHORE MODIFICATION AS NOVEL REPURPOSED ANTIBIOTICS TO COMBAT GRAM-NEGATIVE BACTERIAL INFECTION” (priority 2023, published 2026):
In brackets after ≈: the same amount, converted by molar mass.

Legend:
Type in all cases: cell-based
[1] = test system: E. coli (wild-type) BW25113; assay: Broth microdilution MIC, E. coli wild-type; settings: Escherichia coli, iron-depleted CAMHB, OD600 ≤0.15, read-out: MIC (μg/mL) Gram-negative EC
Experimental: (§1) The test compounds including vancomycin hydrochloride were supplied as a 6.4 mg/mL solution in 100% dimethyl sulfoxide (DMSO) aliquoted into individual wells of a 96-well plate (50 μL per well). […] Standardized inocula were added to the MIC test plates, which were incubated for the prescribed times at 35° C. The N. gonorrhoeae strain was incubated in an atmosphere containing 5% CO2.
(§2) The final optical density of each well at 600 nm was measured using a Tecan Spark plate reader. The compound concentration versus OD600 data were then curve fit using custom software. An MIC value was defined as the lowest compound concentration that led to an OD600 value≤0.15 for the E. coli, K. pneumoniae, P. aeruginosa, A. baumannii, or S. aureus strains. For the N. gonorrhoeae strain, an OD600 value≤0.19 was used as a cutoff to define an MIC value; this higher cut-off value was required because the N. gonorrhoeae MIC plates were covered with plastic seals that increased the background OD600 value.
(§3) JMI Laboratories followed current CLSI quality assurance practices when performing the susceptibility tests. MIC values were validated by concurrently testing the CLSI-recommended ATCC QC reference strains S. aureus ATCC 29213 and K. pneumoniae ATCC 700603. The inoculum density during susceptibility testing was monitored by bacterial colony counts. Where applicable, QC ranges for tested reference strains were those ranges approved or published by CLSI for testing in CAMHB. […] Importantly, the CLSI reference method for testing N. gonorrhoeae is the agar dilution MIC method, which was not used here. Thus, CLSI MIC QC ranges for N. gonorrhoeae could not be applied to the antimicrobials studied here.
(§4) Abbreviations: EC, E. coli (wild-type) BW25113; EC efflux^−, E. coli (tolC) JW5503-1; KPN, K. pneumoniae ATCC 700603; PSA, P. aeruginosa PAO1; PSA efflux^−, P. aeruginosa (multi-pump-gene mutant) PAM1626; ACB, A. baumannii JMI #1186154; GC, N. gonorrhoeae WHO-Z; SA, S. aureus ATCC 29213. Broth microdilution MIC values were measured in iron-depleted CAMHB for all strains except for GC, which was tested in fastidious broth.

[2] = test system: N. gonorrhoeae WHO-Z; assay: Broth microdilution MIC, N. gonorrhoeae; settings: Neisseria gonorrhoeae, read-out: MIC (μg/mL) Gram-negative GC
Experimental: as §1, §2, §3, §4

[3] = test system: E. coli (tolC) JW5503-1; assay: Broth microdilution MIC, E. coli efflux-deficient (tolC); settings: Escherichia coli, read-out: MIC (μg/mL) Gram-negative EC Efflux
Experimental: as §1, §2, §3, §4

[4] = test system: A. baumannii JMI #1186154; assay: Broth microdilution MIC, A. baumannii; settings: Acinetobacter baumannii, iron-depleted CAMHB, OD600 ≤0.15, read-out: MIC (μg/mL) Gram-negative ACB
Experimental: as §1, §2, §3, §4

[5] = test system: P. aeruginosa (multi-pump-gene mutant) PAM1626; assay: Broth microdilution MIC, P. aeruginosa efflux-deficient; settings: Pseudomonas aeruginosa, read-out: MIC (μg/mL) Gram-negative PSA Efflux
Experimental: as §1, §2, §3, §4

[6] = test system: P. aeruginosa PAO1; assay: Broth microdilution MIC, P. aeruginosa; settings: Pseudomonas aeruginosa, iron-depleted CAMHB, OD600 ≤0.15, read-out: MIC (μg/mL) Gram-negative PSA
Experimental: as §1, §2, §3, §4

[7] = test system: S. aureus ATCC 29213; assay: Broth microdilution MIC, S. aureus; settings: Staphylococcus aureus, ATCC29213, iron-depleted CAMHB, OD600 ≤0.15, read-out: MIC (μg/mL) Gram positive SA
Experimental: as §1, §2, §3, §4

[8] = test system: K. pneumoniae ATCC 700603; assay: Broth microdilution MIC, K. pneumoniae; settings: Klebsiella pneumoniae, ATCC700603, read-out: MIC (μg/mL) Gram-negative KPN
Experimental: as §1, §2, §3, §4

SMILES	MIC [1] [µg/mL]	MIC [2] [µg/mL]	MIC [3] [µg/mL]	MIC [4] [µg/mL]	MIC [5] [µg/mL]	MIC [6] [µg/mL]	MIC [7] [µg/mL]	MIC [8] [µg/mL]
CNC(CC(C)C)C(=O)N[C@H]1C(=O)N[C@@H](CC(N)=O)C(=O)N[C@H]2C(=O)N[C@H]3C(=O)N[C@H](C(=O)N[C@@H](C(=O)NCCNC(=O)c4ccc(O)c(O)c4Cl)c4cc(O)cc(O)c4-c4cc3ccc4O)[C@H](O)c3ccc(c(Cl)c3)Oc3cc2cc(c3OC2O[C@H](CO)C(O)C(O)[C@H]2O[C@H]2CC(C)(N)[C@H](O)C(C)O2)Oc2ccc(cc2Cl)[C@H]1O (stereo in doubt) [Compound 3]	16 (≈ 9.63 µM)	> 64	> 64	2 (≈ 1.2 µM)	> 64	> 64	4 (≈ 2.41 µM)	> 64
CNC(CC(C)C)C(=O)N[C@H]1C(=O)N[C@@H](CC(N)=O)C(=O)N[C@H]2C(=O)N[C@H]3C(=O)N[C@H](C(=O)N[C@@H](C(=O)NCCOCCNC(=O)c4ccc(O)c(O)c4Cl)c4cc(O)cc(O)c4-c4cc3ccc4O)[C@H](O)c3ccc(c(Cl)c3)Oc3cc2cc(c3OC2O[C@H](CO)C(O)C(O)[C@H]2O[C@H]2CC(C)(N)[C@H](O)C(C)O2)Oc2ccc(cc2Cl)[C@H]1O (stereo in doubt) [Compound 10]	16 (≈ 9.38 µM)	> 64	> 64	2 (≈ 1.17 µM)	> 64	> 64	4 (≈ 2.34 µM)	> 64
CN[C@H](CC(C)C)C(=O)N[C@H]1C(=O)N[C@@H](CC(N)=O)C(=O)N[C@H]2C(=O)N[C@H]3C(=O)N[C@H](C(=O)N[C@H](C(=O)NCCOCCOCCNC(=O)c4ccc(O)c(O)c4Cl)c4cc(O)cc(O)c4-c4cc3ccc4O)[C@H](O)c3ccc(c(Cl)c3)Oc3cc2cc(c3O[C@@H]2O[C@H](CO)C(O)C(O)[C@H]2O[C@H]2CC(C)(N)[C@H](O)[C@H](C)O2)Oc2ccc(cc2Cl)[C@H]1O (stereo in doubt) [Compound 11]	64 (≈ 36.6 µM)	> 64	> 64	1 (≈ 0.571 µM)	> 64	> 64	4 (≈ 2.29 µM)	> 64
CNC(CC(C)C)C(=O)N[C@H]1C(=O)N[C@@H](CC(N)=O)C(=O)N[C@H]2C(=O)N[C@H]3C(=O)N[C@H](C(=O)N[C@@H](C(=O)NCc4cn(CCNC(=O)c5cccc(O)c5O)nn4)c4cc(O)cc(O)c4-c4cc3ccc4O)[C@H](O)c3ccc(c(Cl)c3)Oc3cc2cc(c3OC2O[C@H](CO)C(O)C(O)[C@H]2O[C@H]2CC(C)(N)[C@H](O)C(C)O2)Oc2ccc(cc2Cl)[C@H]1O (stereo in doubt) [Compound 14]	> 64	> 64	> 64	16 (≈ 9.36 µM)	> 64	> 64	4 (≈ 2.34 µM)	> 64
CN[C@H](CC(C)C)C(=O)N[C@H]1C(=O)N[C@@H](CC(N)=O)C(=O)N[C@H]2C(=O)N[C@H]3C(=O)N[C@H](C(=O)N[C@H](C(=O)NCCOCCOCCNS(=O)(=O)c4ccc(O)c(O)c4)c4cc(O)cc(O)c4-c4cc3ccc4O)[C@H](O)c3ccc(c(Cl)c3)Oc3cc2cc(c3O[C@@H]2O[C@H](CO)C(O)C(O)[C@H]2O[C@H]2CC(C)(N)[C@H](O)[C@H](C)O2)Oc2ccc(cc2Cl)[C@H]1O (stereo in doubt) [Compound 18]	64 (≈ 36.5 µM)	> 64	> 64	1 (≈ 0.571 µM)	> 64	> 64	4 (≈ 2.28 µM)	> 64
CNC(CC(C)C)C(=O)NC1C(=O)NC(CC(N)=O)C(=O)NC2C(=O)NC3C(=O)NC(C(=O)N[C@H](C(=O)NCCCNC(=O)c4cc(=O)c(O)c[nH]4)c4cc(O)cc(O)c4-c4cc3ccc4O)C(O)c3ccc(c(Cl)c3)Oc3cc2cc(c3OC2OC(CO)C(O)C(O)C2OC2CC(C)(N)C(O)C(C)O2)Oc2ccc(cc2Cl)C1O (stereo in doubt) [Compound 20]	32 (≈ 19.5 µM)	> 64	64 (≈ 39 µM)	32 (≈ 19.5 µM)	64 (≈ 39 µM)	64 (≈ 39 µM)	32 (≈ 19.5 µM)	> 64
CNC(CC(C)C)C(=O)NC1C(=O)NC(CC(N)=O)C(=O)NC2C(=O)NC3C(=O)NC(C(=O)N[C@H](C(=O)NCCCCNC(=O)c4cc(=O)c(O)c[nH]4)c4cc(O)cc(O)c4-c4cc3ccc4O)C(O)c3ccc(c(Cl)c3)Oc3cc2cc(c3OC2OC(CO)C(O)C(O)C2OC2CC(C)(N)C(O)C(C)O2)Oc2ccc(cc2Cl)C1O (stereo in doubt) [Compound 21]	32 (≈ 19.3 µM)	> 64	64 (≈ 38.6 µM)	32 (≈ 19.3 µM)	> 64	64 (≈ 38.6 µM)	32 (≈ 19.3 µM)	> 64
CNC(CC(C)C)C(=O)NC1C(=O)NC(CC(N)=O)C(=O)NC2C(=O)NC3C(=O)NC(C(=O)N[C@H](C(=O)NCCCN4C(=O)c5cc(O)c(O)cc5C4=O)c4cc(O)cc(O)c4-c4cc3ccc4O)C(O)c3ccc(c(Cl)c3)Oc3cc2cc(c3OC2OC(CO)C(O)C(O)C2OC2CC(C)(N)C(O)C(C)O2)Oc2ccc(cc2Cl)C1O (stereo partly drawn) [Compound 1]	64 (≈ 38.4 µM)	> 64	64 (≈ 38.4 µM)	32 (≈ 19.2 µM)	> 64	> 64	8 (≈ 4.8 µM)	> 64
CN[C@H](CC(C)C)C(=O)N[C@H]1C(=O)N[C@@H](CC(N)=O)C(=O)N[C@H]2C(=O)N[C@H]3C(=O)N[C@H](C(=O)N[C@H](C(=O)NCCCCN4C(=O)c5cc(O)c(O)cc5C4=O)c4cc(O)cc(O)c4-c4cc3ccc4O)[C@H](O)c3ccc(c(Cl)c3)Oc3cc2cc(c3O[C@@H]2O[C@H](CO)C(O)C(O)[C@H]2O[C@H]2CC(C)(N)[C@H](O)[C@H](C)O2)Oc2ccc(cc2Cl)[C@H]1O (stereo partly drawn) [Compound 2]	32 (≈ 19 µM)	> 64	32 (≈ 19 µM)	32 (≈ 19 µM)	> 64	> 64	8 (≈ 4.76 µM)	> 64
CN[C@H](CC(C)C)C(=O)N[C@H]1C(=O)N[C@@H](CC(N)=O)C(=O)N[C@H]2C(=O)N[C@H]3C(=O)N[C@H](C(=O)N[C@H](C(=O)NCCCNC(=O)c4ccc(O)c(O)c4Cl)c4cc(O)cc(O)c4-c4cc3ccc4O)[C@H](O)c3ccc(c(Cl)c3)Oc3cc2cc(c3O[C@@H]2O[C@H](CO)C(O)C(O)[C@H]2O[C@H]2CC(C)(N)[C@H](O)[C@H](C)O2)Oc2ccc(cc2Cl)[C@H]1O (stereo partly drawn) [Compound 4]	8 (≈ 4.77 µM)	> 64	> 64	1 (≈ 0.597 µM)	> 64	> 64	2 (≈ 1.19 µM)	> 64
CN[C@H](CC(C)C)C(=O)N[C@H]1C(=O)N[C@@H](CC(N)=O)C(=O)N[C@H]2C(=O)N[C@H]3C(=O)N[C@H](C(=O)N[C@H](C(=O)NCCCCNC(=O)c4ccc(O)c(O)c4Cl)c4cc(O)cc(O)c4-c4cc3ccc4O)[C@H](O)c3ccc(c(Cl)c3)Oc3cc2cc(c3O[C@@H]2O[C@H](CO)C(O)C(O)[C@H]2O[C@H]2CC(C)(N)[C@H](O)[C@H](C)O2)Oc2ccc(cc2Cl)[C@H]1O (stereo partly drawn) [Compound 5]	8 (≈ 4.73 µM)	> 64	> 64	1 (≈ 0.592 µM)	> 64	> 64	4 (≈ 2.37 µM)	> 64
CN[C@H](CC(C)C)C(=O)N[C@H]1C(=O)N[C@@H](CC(N)=O)C(=O)N[C@H]2C(=O)N[C@H]3C(=O)N[C@H](C(=O)N[C@H](C(=O)NCCCCCNC(=O)c4ccc(O)c(O)c4Cl)c4cc(O)cc(O)c4-c4cc3ccc4O)[C@H](O)c3ccc(c(Cl)c3)Oc3cc2cc(c3O[C@@H]2O[C@H](CO)C(O)C(O)[C@H]2O[C@H]2CC(C)(N)[C@H](O)[C@H](C)O2)Oc2ccc(cc2Cl)[C@H]1O (stereo partly drawn) [Compound 6]	64 (≈ 37.6 µM)	> 64	> 64	4 (≈ 2.35 µM)	> 64	> 64	4 (≈ 2.35 µM)	> 64
